Here are results for four molecules from patent publication US8008092B2, “CCR3 inhibition for ocular angiogenesis and macular degeneration” (University of Kentucky Research Foundation, priority 2007, dated 2011).

In assay [1] the test system is choroidal neovascularization (CNV). Kind of assay: Laser-induced choroidal neovascularization (CNV) volume, intravitreous injection. It counts as in vivo, C57BL/6J mice. The settings on record: wild-type mice, injected into the vitreous humor immediately after laser injury; compared to vehicle control (DMSO). The method, then: Laser photocoagulation (532 nm, 200 mW, 100 ms, 75 μm) (OcuLight GL, Iridex Corporation) was performed (volume studies: 3/eye; protein analyses/flow cytometry: 12/eye) on both eyes of each animal to induce CNV (choroidal neovascularization). CNV volumes were measured by scanning laser confocal microscope (TCS SP, Leica) with 0.5% FITC-Griffonia simplicifolia Isolectin B4 (Vector Laboratories). CNV was induced by laser injury in C57BL/6J and Ccr3^−/− mice and volumes measured 7 days later by confocal evaluation of Griffonia simplicifolia Isolectin B4 staining of RPE-choroid flatmounts. […]
Because the probability of each laser lesion developing CNV is influenced by the group to which it belongs, the mouse, the eye, and the laser spot, the mean lesion volumes were compared using a linear mixed model with a split plot repeated measures design. […] Statistical significance was determined at the 0.05 level. […]
Laser photocoagulation (532 nm, 200 mW, 100 ms, 75 μm) (OcuLight GL, Iridex Corporation) was performed (volume studies: 3/eye; protein analyses/flow cytometry: 12/eye) on both eyes of each animal to induce CNV. CNV volumes were measured by scanning laser confocal microscope (TCS SP, Leica) with 0.5% FITC-Griffonia simplicifolia Isolectin B4 (Vector Laboratories) or 0.5% FITC-rat antibody against mouse CD31 (BD Biosciences). […]

For assay [2], the system named is primary hCEC. Description: F-actin polymerization assay. Type of assay: cell-based, human. The settings on record: eotaxin-1 10 ng/mL, eotaxin-2 100 ng/mL, eotaxin-3 2 μg/mL. The method, then:
A F-actin polymerization assay was performed. 10,000 cells from early passage primary hCEC isolates (n=3) were seeded in black-walled 96-well plates and grown to 70-80% confluency in fully supplemented EGM-2MV. Cultures were serum starved overnight in basal media and then stimulated with recombinant human eotaxin-1 (10 ng/mL), eotaxin-2 (100 ng/mL), eotaxin-3 (2 μg/mL) (Peprotech), or vehicle control (PBS). At 0, 10, 30, 60, or 120 second time-points (n=4 per group), cells were fixed in 3.7% paraformaldehyde for 10 minutes, washed, permeabilized in PBS with 0.1% Triton-X, and then stained with rhodamine labeled Phalloidin (1:200, Invitrogen) per manufacturer's recommendations. Plates were analyzed on a fluorescent plate reader (Synergy 4, Biotek) followed by fluorescent microscopy (Nikon E800).
F-actin polymer ratios between baseline and treated cultures were calculated using a fluorescent based plate assay.

The subject of assay [3] is Rac-1 GTPase in Human CECs (hCECs). Description: Rac-1 activation assay (GST-Pak1-PBD pull-down, western blot). Type of assay: cell-based. The settings on record: hCEC, eotaxin-1 10 ng/ml, at 10 seconds, normalized against control band density. The method, then: A Rac-1 activation assay was performed. Human CECs were cultured in EGM-2 MV containing 5% FBS. Prior to starting the assay, cells were serum starved with basal medium (MCDB131) supplemented with 1% FB S overnight. Cells were stimulated for designated times with Eotaxin-1, 2 and 3 (10 ng/ml, 100 ng/ml and 2 μg/ml respectively). Equal amounts of lysates (500 μg) were incubated with GST-Pak1-PBD agarose beads (Upstate) to pull-down active GTP-bound Rac-1 at 4° C. for 1 hour with rotation. The samples were subsequently analyzed for bound Rac-1 by western blot analysis using an anti-Rac-1 antibody (Upstate). Band density was measured using VisionWorksLS software (UVP).
hCECs) were stimulated with Eotaxin-1, 2 and 3 for indicated times. Cells without Eotaxin stimulation were used as a control (0 sec). Equal amount (500 μg) of total cell lysates was used to determine the GTP-bound Rac-1 (active) by pull-down assays. Levels of increase of active Rac-1 were measured after normalizing against the control band density.
In general terms: A western blot detects proteins with antibodies after separation by electrophoresis.

“(S)-Methyl-2-naphthoylamino-3-(4-nitrophenyl)propionate [SB328437]”: the CNV volume result in assay [1] is “reduces CNV volume in a dose-dependent and statistically significant manner”.
In the case of “Eotaxin-1: recombinant human eotaxin-1 (Peprotech), CCR3 ligand”, the “time of peak F-actin polymerization after stimulation” value (from here on “time of peak F-actin polymerization”) in assay [2] was found to be 10 s. In assay [3], the “increase of Rac-1 activation” value is recorded as “about 6.5 fold”.

B1: Eotaxin-2: recombinant human eotaxin-2 (Peprotech), CCR3 ligand (protein, UniProt O00175 27-119, looked up)
C-C motif chemokine 24: VVIPSPCCMFFVSKRIPENRVVSYQLSSRSTCLKAGVIFTTKKGQQFCGDPKQEWVQRYMKNLDAKQKKASPRARAVAVKGPVQRYPGNQTTC
As to B1, the “time of peak F-actin polymerization” value in assay [2] worked out at 10 s.

B2: Eotaxin-3: recombinant human eotaxin-3 (Peprotech), CCR3 ligand (protein, UniProt Q9Y258 24-94, looked up)
C-C motif chemokine 26: TRGSDISKTCCFQYSHKPLPWTWVRSYEFTSNSCSQRAVIFTTKRGKKVCTHPRKKWVQKYISLLKTPKQL
B2: the “time of peak F-actin polymerization” value in assay [2] was found to be 10 s.
